The values below come from US11963948B1, “2-(4-chlorophenyl)-4,5-bis(4-chlorophenyl)-1H-imidazole as an antimicrobial compound” (KING FAISAL UNIVERSITY, priority 2023, dated 2024).

The subject of one series is Pseudomonas aeruginosa. Description: Agar plate disc-diffusion, antibacterial activity, Pseudomonas aeruginosa. Type of series: cell-based. As to conditions: Pseudomonas aeruginosa (Gram negative), nutrient agar, 37° C., 48 h. On the procedure: (§1) The agar plate disc-diffusion method was applied. […] The discs were then placed onto the surface of agar plates (nutrient agar for bacteria and Sabouraud's dextrose agar for fungi) seeded with the test organism. Each plate contained 15 mL of the agar medium, previously seeded with 0.2 mL of the broth culture of each organism pregrown for 18 hours. The plates were incubated at 37° C. for 48 h, and 72 h for fungi. The inhibition zones were measured in mm. Discs impregnated with DMSO were used as a control, and its inhibition zone was subtracted from the tested compound actual inhibition zone.

The subject of series [1] is Chrysosporium keratinophilum. Description: Agar plate disc-diffusion, antifungal activity, Chrysosporium keratinophilum. The class given is cell-based. As to conditions: Sabouraud's dextrose agar, 37° C., 72 h. On the procedure:
as §1
In general terms: In agar diffusion tests the substance spreads into inoculated agar from a disc or well.

A further series relates to Staphylococcus aureus. In words: Agar plate disc-diffusion, antibacterial activity, Staphylococcus aureus. The class given is cell-based. As to conditions: Staphylococcus aureus (Gram positive), nutrient agar, 37° C., 48 h. On the procedure:
as §1

Another series concerns Bacillus cereus. In words: Agar plate disc-diffusion, antibacterial activity, Bacillus cereus. Type of series: cell-based. Particulars: Bacillus cereus (Gram positive), nutrient agar, 37° C., 48 h. On the procedure: as §1
The test system of the next series is Aspergillus flavus. In words: Agar plate disc-diffusion, antifungal activity, Aspergillus flavus. Type of series: cell-based. As to conditions: Sabouraud's dextrose agar, 37° C., 72 h. The procedure:
The agar plate disc-diffusion method was applied. Sterilized filter papers (6 mm in diameter) were wetted with 10 μL of a solution of 2-(4-chlorophenyl)-4,5-bis(4-chlorophenyl)-1H-imidazole (IV) to be tested, containing 10 mg/mL in DMSO, and the discs were allowed to air dry. The discs were then placed onto the surface of agar plates (nutrient agar for bacteria and Sabouraud's dextrose agar for fungi) seeded with the test organism. Each plate contained 15 mL of the agar medium, previously seeded with 0.2 mL of the broth culture of each organism pregrown for 18 hours. The plates were incubated at 37° C. for 48 h, and 72 h for fungi. The inhibition zones were measured in mm. Discs impregnated with DMSO were used as a control, and its inhibition zone was subtracted from the tested compound actual inhibition zone.

A further series concerns Escherichia coli. Description: Agar plate disc-diffusion, antibacterial activity, Escherichia coli. As to conditions: Escherichia coli (Gram negative), nutrient agar, 37° C., 48 h. Type of series: cell-based. The procedure: as §1
Setting [2] is: A = concentration of comp. = 10,000 µg/mL.
The mark [3] stands for this setting: B = concentration of comp. = 30,000 μL.
Setting [4] is: C = concentration of comp. = 50,000 μL.
Where [5] appears, read: A = concentration of comp. = 10,000 μL.

As for `O=C(O)c1cn(C2CC2)c2cc(N3CCNCC3)c(F)cc2c1=O` [Cip., ciprofloxacin, reference compound], the inhibition zone came out at 29 mm with Pseudomonas aeruginosa (setting [2]); 30 mm with Pseudomonas aeruginosa (setting [3]); 53 mm in the series on Pseudomonas aeruginosa (setting [4]); 29 mm in series [1] (setting [5]); 30 mm in series [1] (setting [3]); 53 mm in series [1] (setting [4]). In addition, the inhibition zone is listed as 43 mm in the series on Staphylococcus aureus (setting [5]); 44 mm in the series with Staphylococcus aureus (setting [3]); 53 mm in the series with Staphylococcus aureus (setting [4]); 29 mm in the series with Bacillus cereus (setting [5]); 30 mm in the series with Bacillus cereus (setting [3]); 42 mm in the series with Bacillus cereus (setting [4]). In addition, the inhibition zone in the series on Aspergillus flavus (setting [5]) amounted to 29 mm; in the series with Aspergillus flavus (setting [3]) it was 30 mm; in the series with Aspergillus flavus (setting [4]) it was 42 mm; in the series with Escherichia coli (setting [5]) it was 30 mm; with Escherichia coli (setting [3]), 39 mm; in the series on Escherichia coli (setting [4]), 60 mm.
The compound `Clc1ccc(-c2nc(-c3ccc(Cl)cc3)c(-c3ccc(Cl)cc3)[nH]2)cc1` [IV, 2-(4-chlorophenyl)-4,5-bis(4-chlorophenyl)-1H-imidazole] returned a melting point of 211 to 212 °C. The compound further gave an inhibition zone in the series with Pseudomonas aeruginosa (setting [2]) of 24 mm. In the series with Pseudomonas aeruginosa (setting [3]), this compound had an inhibition zone of 26 mm. For the same compound, the inhibition zone with Pseudomonas aeruginosa (setting [4]) was found to be 43 mm. In addition, in series [1] (setting [5]), the inhibition zone was 22 mm. Moreover, the inhibition zone in series [1] (setting [3]) stood at 27 mm. The compound also displayed an inhibition zone in series [1] (setting [4]) of 40 mm. This compound also returned an inhibition zone in the series with Staphylococcus aureus (setting [5]) of 17 mm. The inhibition zone in the series with Staphylococcus aureus (setting [3]) came to 23 mm. The inhibition zone with Staphylococcus aureus (setting [4]) is recorded as 34 mm. Besides, the inhibition zone with Bacillus cereus (setting [5]) came out at 25 mm. Further, the inhibition zone with Bacillus cereus (setting [3]) amounted to 27 mm. In the series on Bacillus cereus (setting [4]), this compound registered an inhibition zone of 40 mm. The inhibition zone in the series with Aspergillus flavus (setting [5]) is 23 mm. Besides, in the series on Aspergillus flavus (setting [3]), the inhibition zone is reported as 25 mm. The compound also yielded an inhibition zone in the series on Aspergillus flavus (setting [4]) of 33 mm. This compound returned an inhibition zone in the series on Escherichia coli (setting [5]) of 25 mm. In the series with Escherichia coli (setting [3]), this compound returned an inhibition zone of 30 mm. The compound also showed an inhibition zone with Escherichia coli (setting [4]) of 48 mm.

For orientation: melting point means the temperature of the solid-liquid transition.
